Assay results from patent US20250312469A1 (CANGET BIOTEKPHARMA, priority 2024, published 2025).
Marks after values point to notes of the source that are not given here.

Columns and labels:
[1] = test system: Agrin and its downstream targets; test: Western blots of Agrin and downstream targets in pancreatic cancer cell lines; format: cell-based, human
Method: For frozen prostate cancer tissue specimens and their adjacent non-tumor tissues (if any) obtained from Roswell Park pathology network, 30-50 mg of each tissue in a 1.5 Eppendorf tube containing 500 μL of 2×SDS lysis buffer containing Tris pH 6.8+4% SDS+10% Glycerol were homogenized through ultrasound treatment for 10-15 second per time with 3-6 times until tumor tissue was lysed. After all tissues were processed, 1.5 mL tubes were centrifuged at 13,000 rom in a microcentrifuge for 1-2 min and then the supernatant in each tube was transferred into a new 1.5 mL tube for protein concentration measurement (refer to the section of “Studies with Human patient tumor specimens” for more information). Twenty to fifty μg total protein from each sample (cell lysis or tumor tissue lysis) were heated at 95° C. for 5 minutes after mixing with equal volumes of 2× SDS loading buffer. […] The membrane was then blocked in 5% skim milk in TBS-T buffer (20 mM Tris/HCl pH 7.5, 0.137 M NaCl, and 0.1% Tween 20) at room temperature for 2-3h. […] Proteins of interest were detected using Western Lightning ECL-Plus (Perkin Elmer, Waltham, MA) and visualized by various times (3-120 seconds) of exposure. Actin, tubulin and/or GAPDH were detected as the internal control to normalize total protein loading for each sample.

[2] = test system: p53, Mdm2, AR, AR-Vs, c-Myc, MdmX; test: Western blot/RT-PCR of p53, Mdm2, AR, AR-Vs, c-Myc, MdmX in PCa cells; format: cell-based, human
[3] = format: physicochemical; settings: solid state of powder
[4] = Rat toxicology/MTD, non-clinically compatible FL118 HPMC suspension (Covance); settings: for % BW Change (Day 4) / BW Change (Day 4) / Mean body weight Day 1 / Mean body weight Day 4: 3.3 mg/kg/dose
From the text: Twenty male and 20 female Hsd: Sprague Dawley®SDR rats were received from Envigo RMS, Inc. (Indianapolis, Indiana). Animals were acclimated to the test facility for 7 days prior to initiation.
Prior to group assignment, animals were excluded from the selection pool/sex to produce minimal variation. Animals were assigned to the study using a computerized procedure designed to achieve body weight balance with respect to group assignment with the following experimental design.
Doses were based on the most recently recorded scheduled body weight. Animals were checked twice daily (a.m. and p.m.) for mortality, abnormalities, and signs of pain or distress. Cage-side observations were conducted for each animal once daily during the dosing phase, except on days when detailed observations were conducted. Abnormal findings were recorded. Detailed observations were conducted for each animal once during the pre-dose phase, and on Days 1, 4 and 8 (prior to dosing, as applicable) of the dosing phase. Detailed observations were also collected for each animal on days of scheduled sacrifice (all surviving animals). On each day of dosing, cage-side observations were conducted for each animal approximately 1, 4, and 24 hours postdose. Postdose observations were based on the time dosing was completed for each group/sex. Body weights were recorded once during the pre-dose phase, and on Days 1, 4, and 8 (prior to dosing, as applicable) of the dosing phase. The amount of food consumed by each cage of was recorded Days 1 to 4, Days 4 to 8, and Days 8 to 9. Blood samples for hematology, coagulation, and clinical chemistry were collected from fasted toxicity animals via a jugular vein. Blood samples were collected on the day of scheduled sacrifice. […] The anticoagulants were sodium citrate for coagulation tests and potassium EDTA for hematology tests. Samples for clinical chemistry were collected without anticoagulant.
On Day 10 of the dosing phase, all surviving animals, having been fasted overnight, were anesthetized via isoflurane inhalation, exsanguinated, and necropsied. Terminal body weights were recorded for animals sacrificed at a scheduled interval. A macroscopic examination of the external features of the carcass; external body orifices; abdominal, thoracic, and cranial cavities; organs; and tissues was performed. Organ weights were recorded at the scheduled sacrifice. Paired organs were weighed together. Bone marrow smears (two slides) were prepared from the femur of each animal.
Various models of calculators, computers, and computer programs were used to analyze data in this study. Values in some tables (e.g., means, standard deviations, or individual values) may differ slightly from those in other tables, from individually calculated data, or from statistical analysis data, because different models round off or truncate numbers differently. However, neither the integrity nor the interpretation of the data was affected by these differences.
Data for each sex were analyzed separately; only data collected on or after the first day of dosing were analyzed statistically. Analysis of variance (ANOVA) and pairwise comparisons were used to analyze absolute body weight, Body weight change and continuous clinical pathology values. Levene's test was done to test for equality of variances between groups.

ABCG2/BCRP = target: T1, ABCG2/BCRP (Homo sapiens, UniProt Q9UNQ0); settings: Caco-2; without and with Ko143
T1 sequence (Q9UNQ0 1-655): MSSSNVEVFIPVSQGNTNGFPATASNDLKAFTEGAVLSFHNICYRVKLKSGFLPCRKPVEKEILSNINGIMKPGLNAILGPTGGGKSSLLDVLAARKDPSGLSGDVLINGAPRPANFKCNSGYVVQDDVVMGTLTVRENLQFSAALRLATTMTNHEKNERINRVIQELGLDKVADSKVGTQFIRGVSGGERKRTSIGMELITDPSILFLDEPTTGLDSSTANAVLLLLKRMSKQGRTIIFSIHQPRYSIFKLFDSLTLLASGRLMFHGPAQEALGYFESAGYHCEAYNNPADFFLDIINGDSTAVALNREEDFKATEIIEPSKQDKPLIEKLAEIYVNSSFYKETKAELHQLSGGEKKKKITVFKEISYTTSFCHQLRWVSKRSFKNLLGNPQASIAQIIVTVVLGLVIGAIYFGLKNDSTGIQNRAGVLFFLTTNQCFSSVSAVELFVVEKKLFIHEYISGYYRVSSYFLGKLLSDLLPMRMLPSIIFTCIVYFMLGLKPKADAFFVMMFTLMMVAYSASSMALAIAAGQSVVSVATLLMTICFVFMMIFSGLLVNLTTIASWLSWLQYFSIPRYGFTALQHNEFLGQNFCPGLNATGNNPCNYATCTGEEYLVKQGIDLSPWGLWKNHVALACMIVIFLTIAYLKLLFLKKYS

in vivo = settings: SCID, mouse, iv

CCC1(O)C(=O)OCc2c1cc1n(c2=O)Cc2cc3cc4c(cc3nc2-1)OCO4 (centres unmarked) [FL118]
DDX5, Agrin, YAP1, Integrin expression and FAK phosphorylation ([1]; Mia Paca-2, Panc-1, BxPC-3, 10, 100, 500 nM): inhibits the expression of DDX5, Agrin, YAP1 and Integrin as well as the FAK phosphorylation status | Agrin and YAP1 proteins ([1]; Panc-1 cells): inhibits Agrin and YAP1 proteins | AR mRNA [2]: decrease AR mRNA levels | expression of p53, Mdm2, AR, AR-Vs, MdmX, c-Myc [2]: induces the expression of p53 (p21 increase is a hallmark of p53 activation) and Mdm2 but inhibits AR, AR-Vs, MdmX, and c-Myc | XRPD [3]: Weak crystal | % BW Change (Day 4) ([4]; Female): −14% | BW Change (Day 4) ([4]; Female): −26* g | Mean body weight Day 1 ([4]; Female): 192 g | Mean body weight Day 4 ([4]; Female): 168* g | % BW Change (Day 4) ([4]; Male): −12% | BW Change (Day 4) ([4]; Male): −25* g | Mean body weight Day 1 ([4]; Male): 207 g | Mean body weight Day 4 ([4]; Male): 183* g | highest non-severely toxic dose (HNSTD) ([4]; oral, day 1 and day 8): 1.65 mg/kg/dose | BCRP Substrate Classification (ABCG2/BCRP): Negative (ER≥2.0 without Ko143, and reduced by <50% with Ko143: Negative) | Tmax (in vivo; FaDu tumor): 10 min | half-life (in vivo; FaDu tumor): 411 min | Tmax (in vivo; SW620 tumor): 10 min | half-life (in vivo; SW620 tumor): 765 min | Tmax (in vivo; plasma): 10 min | Vd (in vivo; plasma): 36.8 L/kg | clearance (in vivo; plasma): 238 mL/min/kg | half-life (in vivo; plasma): 107 min
